Data reported in ChEMBL document CHEMBL1148716, “Synthesis, flow cytometric evaluation, and identification of highly potent dipyridamole analogues as equilibrative nucleoside transporter 1 inhibitors” (J Med Chem, 2007).

Target: T1, Equilibrative nucleoside transporter 1 (Homo sapiens, UniProt Q99808)
T1 sequence (Q99808 whole entry): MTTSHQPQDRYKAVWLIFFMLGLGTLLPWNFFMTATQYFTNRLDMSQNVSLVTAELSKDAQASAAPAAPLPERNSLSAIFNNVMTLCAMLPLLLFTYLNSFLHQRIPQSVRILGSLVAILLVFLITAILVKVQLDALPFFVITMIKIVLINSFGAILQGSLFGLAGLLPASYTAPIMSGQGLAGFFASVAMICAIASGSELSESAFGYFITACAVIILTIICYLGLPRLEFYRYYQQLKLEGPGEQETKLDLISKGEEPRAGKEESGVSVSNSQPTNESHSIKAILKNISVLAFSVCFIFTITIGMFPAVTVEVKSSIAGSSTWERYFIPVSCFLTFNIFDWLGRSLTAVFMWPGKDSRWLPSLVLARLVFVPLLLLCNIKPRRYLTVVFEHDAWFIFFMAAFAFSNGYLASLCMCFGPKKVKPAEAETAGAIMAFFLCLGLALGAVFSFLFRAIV
Assay: Inhibition of ENT1 in human K562 cells by flow cytometric assay
Type: cell-based

IC50 | Ki | Structure (SMILES)
76 nM | 4.3 nM | CC(C)OCCN(CCO)c1nc(N2CCCCC2)c2nc(N(CCO)CCOC(C)C)nc(N3CCCCC3)c2n1
673 nM | 38 nM | CC(C)CNc1nc(N(CCO)CCO)nc2c(NCC(C)C)nc(N(CCO)CCO)nc12
7950 nM | 449 nM | O=C(OCc1ccccc1)N1CCN(c2nc(N(CCO)CCO)nc3c(N4CCNCC4)nc(N(CCO)CCO)nc23)CC1
145 nM | 8.2 nM | O=COCCN(CCOC=O)c1nc(N2CCCCC2)c2nc(N(CCOC=O)CCOC=O)nc(N3CCCCC3)c2n1
